Test results as given in patent US20110150836A1, “METHODS OF TREATING HBV AND HCV INFECTION” (Gilead Sciences, Inc., priority 2009, published 2011).

Test system: interferon-alpha
Assay: Induction of interferon alpha in cynomolgus monkeys, single oral dose (serum ELISA)
Type: in vivo
Conditions: serum at 4 and 8 hours
Procedure: A single dose of Compound A was administered orally to cynomolgus monkeys (3 or more animals per dose group) and serum was collected at 4 hours and 8 hours after dosing. Serum samples were analyzed for levels of interferon-alpha by ELISA. Prior to dosing, serum interferon-alpha levels were near or below the level of detection in each animal. The limit of quantitation (LOQ) for IFN-a based on cynomolgus monkey IFN-a standard was 625 pg/mL.

CCCCOc1nc(N)c2nc(O)n(Cc3cccc(CN4CCCC4)c3)c2n1 [Compound A, 6-amino-2-butoxy-9-(3-(pyrrolidin-1-ylmethyl)benzyl)-9H-purin-8-ol]
Average peak serum Interferon-alpha levels (Mean ± standard deviation) (single oral dose 0.005 mg/kg): 7829 ± 9192 pg/mL | Average peak serum Interferon-alpha levels (Mean ± standard deviation) (single oral dose 0.02 mg/kg): 26148 ± 13873 pg/mL | Average peak serum Interferon-alpha levels (Mean ± standard deviation) (single oral dose 0.05 mg/kg): 42741 ± 29223 pg/mL | Average peak serum Interferon-alpha levels (Mean ± standard deviation) (single oral dose 2.5 mg/kg): 772923 ± 281529 pg/mL
